The text below walks through data of patent publication US20220054617A1, “SUBUNIT VACCINE CONSTRUCTS FOR FLAVIVIRUSES” (priority 2018, published 2022).

One test concerns the target TLR-7 (Homo sapiens, UniProt Q9NYK1). As to conditions: in vitro.
The target of another test is TLR-8 (Homo sapiens, UniProt Q9NR97). The conditions noted are these: in vitro.
Test [1] has as its system human whole blood or PBMCs.
The subject of another test is albumin. The conditions noted are these: human, non-human primate, pig, rabbit, rat, mouse; cited from earlier work.

Sequence of TLR-7 (Q9NYK1 27-1049, species assumed): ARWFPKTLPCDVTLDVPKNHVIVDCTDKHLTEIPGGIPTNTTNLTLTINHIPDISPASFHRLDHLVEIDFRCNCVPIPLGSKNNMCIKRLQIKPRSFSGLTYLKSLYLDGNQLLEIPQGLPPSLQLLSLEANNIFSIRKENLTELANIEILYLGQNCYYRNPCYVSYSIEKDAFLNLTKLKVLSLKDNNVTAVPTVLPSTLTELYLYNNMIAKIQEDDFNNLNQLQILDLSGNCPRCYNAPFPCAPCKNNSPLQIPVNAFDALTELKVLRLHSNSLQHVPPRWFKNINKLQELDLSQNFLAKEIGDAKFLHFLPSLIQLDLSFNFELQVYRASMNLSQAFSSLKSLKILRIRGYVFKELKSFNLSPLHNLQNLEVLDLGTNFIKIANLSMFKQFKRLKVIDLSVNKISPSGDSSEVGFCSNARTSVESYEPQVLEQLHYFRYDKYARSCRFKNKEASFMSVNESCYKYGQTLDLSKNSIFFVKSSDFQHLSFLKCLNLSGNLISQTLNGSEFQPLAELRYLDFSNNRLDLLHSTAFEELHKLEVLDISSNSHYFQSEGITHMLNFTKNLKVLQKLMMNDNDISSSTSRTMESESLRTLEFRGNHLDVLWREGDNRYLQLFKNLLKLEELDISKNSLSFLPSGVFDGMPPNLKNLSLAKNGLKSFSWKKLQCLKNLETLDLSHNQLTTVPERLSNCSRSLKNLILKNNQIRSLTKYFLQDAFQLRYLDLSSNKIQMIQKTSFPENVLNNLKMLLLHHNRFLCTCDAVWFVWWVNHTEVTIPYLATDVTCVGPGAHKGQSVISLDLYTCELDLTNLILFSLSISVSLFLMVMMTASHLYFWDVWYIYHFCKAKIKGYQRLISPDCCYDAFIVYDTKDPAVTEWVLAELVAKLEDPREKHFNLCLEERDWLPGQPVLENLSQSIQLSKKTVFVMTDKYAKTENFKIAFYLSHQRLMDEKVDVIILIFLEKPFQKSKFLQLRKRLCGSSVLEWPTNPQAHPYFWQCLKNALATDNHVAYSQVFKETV
Sequence of TLR-8 (Q9NR97 27-1041): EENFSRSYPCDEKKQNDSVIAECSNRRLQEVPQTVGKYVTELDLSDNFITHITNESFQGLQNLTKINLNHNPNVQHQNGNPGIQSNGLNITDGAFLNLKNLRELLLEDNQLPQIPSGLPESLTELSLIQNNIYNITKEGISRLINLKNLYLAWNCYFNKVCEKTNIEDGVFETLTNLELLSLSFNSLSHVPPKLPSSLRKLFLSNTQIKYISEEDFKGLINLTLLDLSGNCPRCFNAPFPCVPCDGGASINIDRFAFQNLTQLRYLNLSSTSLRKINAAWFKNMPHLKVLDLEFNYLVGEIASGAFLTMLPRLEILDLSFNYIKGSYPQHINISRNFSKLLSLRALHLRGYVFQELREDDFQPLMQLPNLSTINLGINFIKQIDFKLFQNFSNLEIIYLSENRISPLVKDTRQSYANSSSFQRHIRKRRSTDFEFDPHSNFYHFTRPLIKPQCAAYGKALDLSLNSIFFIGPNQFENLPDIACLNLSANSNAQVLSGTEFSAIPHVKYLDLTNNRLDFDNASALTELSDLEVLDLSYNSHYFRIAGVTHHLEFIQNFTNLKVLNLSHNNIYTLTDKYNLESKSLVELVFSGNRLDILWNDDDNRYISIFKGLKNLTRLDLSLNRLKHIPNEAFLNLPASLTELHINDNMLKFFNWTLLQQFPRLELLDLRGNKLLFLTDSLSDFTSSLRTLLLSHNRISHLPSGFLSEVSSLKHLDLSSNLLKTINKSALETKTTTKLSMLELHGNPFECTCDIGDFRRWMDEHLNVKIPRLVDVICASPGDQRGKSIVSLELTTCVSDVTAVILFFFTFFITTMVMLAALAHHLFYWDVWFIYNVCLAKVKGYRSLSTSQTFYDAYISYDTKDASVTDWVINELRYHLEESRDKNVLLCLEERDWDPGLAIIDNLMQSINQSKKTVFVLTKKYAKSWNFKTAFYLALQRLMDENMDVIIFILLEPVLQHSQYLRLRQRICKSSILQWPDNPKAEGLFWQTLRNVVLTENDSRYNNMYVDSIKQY

For the substance “covalent conjugate of an imidazoquinoline TLR7/TLR8 dual agonist [5-(3-(aminomethyl)benzyl)-3-pentylquinolin-2-amine] with hyaluronic acid [EY-4-143]”, at TLR-7, the “activity in TLR-7 primary assay” value was “inactive”. Further, the “activity in TLR-8 primary assay” value at TLR-8 was “inactive”. In addition, the cytokine induction result in test [1] was “silent”. The adjuvant effect entry in the test with ZIKV (in vivo) is reported as “potent adjuvant”. Besides, the “elicitation of neutralizing antibodies after the first boost” value in the test with ZIKV (with the ZIKV antigen, several candidate adjuvants examined, preliminary screens) is recorded as “consistently elicit neutralizing antibodies after the first boost”.

In the case of “SGP portion: portion of the Streptococcal G protein used as N-terminal tag, SEQ ID NO: 14 (LAEAKVLANRELDKYGVSDYYKNLINNAKTVEGVKALIDEILAALPK)”, the binding to albumin result in the test with albumin is given as “good binding”.
